PubChem BioAssay AID248 (DTP/NCI, 2004)
Values joined by “and” are separate entries in the source; they are usually repeats but may differ in a detail not shown here. Equal values may be shown once. Inconclusive results and toxic doses are left out.

Tested on: L1210 leukemia ip in BDF1 mice, survival T/C
Assay: NCI In Vivo Anticancer Drug Screen. Data for tumor model L1210 Leukemia (intraperitoneal) in B6D2F1 (BDF1) mice
Conditions: endpoint: mean survival time, higher = longer survival
Summary of the method: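 Each compound was tested against a transplantable tumor grown in mice. The endpoint was survival, with treated animals benchmarked against vehicle controls as a simple ratio.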

[1] = dose: 100.0 mg/kg/injection, schedule: Q01DX009 (ip), vehicle: saline with Tween-80
[2] = dose: 100.0 mg/kg/injection, schedule: Q04DX003 (ip), vehicle: saline with Tween-80
[3] = dose: 100.0 mg/kg/injection, schedule: Q04DX003 (ip), vehicle: Klucel (hydroxypropylcellulose) (HPC)
[4] = dose: 200.0 mg/kg/injection, schedule: Q04DX003 (ip), vehicle: Klucel (hydroxypropylcellulose) (HPC)
[5] = dose: 100.0 mg/kg/injection, schedule: Q01DX001 (ip), vehicle: saline
[6] = dose: 200.0 mg/kg/injection, schedule: Q01DX001 (ip), vehicle: saline
[7] = dose: 400.0 mg/kg/injection, schedule: Q01DX001 (ip), vehicle: saline
[8] = dose: 50.0 mg/kg/injection, schedule: Q01DX001 (ip), vehicle: carboxymethylcellulose (CMC)
[9] = dose: 100.0 mg/kg/injection, schedule: Q01DX001 (ip), vehicle: carboxymethylcellulose (CMC)
[10] = dose: 100.0 mg/kg/injection, schedule: Q04DX003 (ip), vehicle: saline
[11] = dose: 200.0 mg/kg/injection, schedule: Q04DX003 (ip), vehicle: saline
[12] = dose: 400.0 mg/kg/injection, schedule: Q04DX003 (ip), vehicle: saline
[13] = dose: 400.0 mg/kg/injection, schedule: Q04DX003 (ip), vehicle: Klucel (hydroxypropylcellulose) (HPC)
[14] = dose: 200.0 mg/kg/injection, schedule: Q01DX001 (ip), vehicle: carboxymethylcellulose (CMC)
[15] = dose: 400.0 mg/kg/injection, schedule: Q01DX001 (ip), vehicle: carboxymethylcellulose (CMC)
[16] = dose: 200.0 mg/kg/injection, schedule: Q04DX003 (ip), vehicle: saline with Tween-80
[17] = dose: 400.0 mg/kg/injection, schedule: Q04DX003 (ip), vehicle: saline with Tween-80
[18] = dose: 25.0 mg/kg/injection, schedule: Q01DX009 (ip), vehicle: saline

Compound: OCC1OC(n2ccc3cncnc32)C(O)C1O (centres undefined)
- T/C (dose: 5.0 mg/kg/injection, schedule: Q01DX001 (ip), vehicle: saline): 106 % of control
- T/C (dose: 10.0 mg/kg/injection, schedule: Q01DX001 (ip), vehicle: saline): 109 % of control
- T/C (dose: 20.0 mg/kg/injection, schedule: Q01DX001 (ip), vehicle: saline): 106 % of control
- T/C (dose: 40.0 mg/kg/injection, schedule: Q01DX001 (ip), vehicle: saline): 106 % of control

Compound: NC(=O)C1(c2ccccc2)CCN(Cc2ccccc2)CC1
- T/C (dose: 25.0 mg/kg/injection, schedule: Q01DX009 (ip), vehicle: saline with Tween-80): 100 % of control
- T/C (dose: 50.0 mg/kg/injection, schedule: Q01DX009 (ip), vehicle: saline with Tween-80): 98 % of control
- T/C (dose: 50.0 mg/kg/injection, schedule: Q04DX003 (ip), vehicle: saline with Tween-80): 95 % of control
- T/C [1]: 94 % of control
- T/C [2]: 92 % of control

Compound: CC(=O)Nc1nccs1
- T/C (dose: 50.0 mg/kg/injection, schedule: Q01DX009 (ip), vehicle: Klucel (hydroxypropylcellulose) (HPC)): 94 % of control
- T/C (dose: 100.0 mg/kg/injection, schedule: Q01DX009 (ip), vehicle: Klucel (hydroxypropylcellulose) (HPC)): 97 % of control
- T/C [3]: 97 % of control
- T/C [4]: 97 % of control

Compound: CCCCN(Cl)C(C)=O
- T/C [5]: 96 % of control
- T/C [6]: 100 % of control
- T/C [7]: 96 % of control

Compound: O=C(O)C1C(c2ccccc2)=C(c2ccccc2)C(c2ccccc2)=C(c2ccccc2)C1C(=O)O (centres undefined)
- T/C [8]: 89 % of control
- T/C [9]: 92 % of control

Compound: COc1ccc(S(=O)O)cc1NC(C)=O
- T/C [5]: 105 % of control
- T/C (dose: 100.0 mg/kg/injection, schedule: Q01DX009 (ip), vehicle: saline): 94 % of control
- T/C [10]: 92 % of control and 100 % of control
- T/C [6]: 96 % of control
- T/C (dose: 200.0 mg/kg/injection, schedule: Q01DX009 (ip), vehicle: saline): 87 % of control
- T/C [11]: 93 % of control and 95 % of control
- T/C [7]: 98 % of control
- T/C (dose: 400.0 mg/kg/injection, schedule: Q01DX009 (ip), vehicle: saline): 86 % of control
- T/C [12]: 91 % of control and 93 % of control

Compound: CC1(O)CCC2CC1C2(C)CO (centres undefined)
- T/C (dose: 50.0 mg/kg/injection, schedule: Q04DX003 (ip), vehicle: Klucel (hydroxypropylcellulose) (HPC)): 108 % of control
- T/C [3]: 101 % of control
- T/C [4]: 106 % of control
- T/C [13]: 111 % of control

Compound: NC(=O)c1cccc(Cl)n1
- T/C (dose: 12.5 mg/kg/injection, schedule: Q04DX002 (ip), vehicle: Klucel (hydroxypropylcellulose) (HPC)): 92 % of control
- T/C (dose: 25.0 mg/kg/injection, schedule: Q04DX002 (ip), vehicle: Klucel (hydroxypropylcellulose) (HPC)): 87 % of control
- T/C (dose: 50.0 mg/kg/injection, schedule: Q04DX002 (ip), vehicle: Klucel (hydroxypropylcellulose) (HPC)): 90 % of control

Compound: C=CC1CC=CCC1 (centres undefined) (tested in a mixture with another compound)
- T/C [8]: 98 % of control
- T/C [9]: 98 % of control
- T/C [14]: 98 % of control
- T/C [15]: 108 % of control

Compound: CC(=O)OCC1(C[N+](C)(C)C)CC1
- T/C [5]: 103 % of control
- T/C [10]: 100 % of control
- T/C [6]: 97 % of control
- T/C [11]: 100 % of control
- T/C [7]: 105 % of control
- T/C [12]: 100 % of control

Compound: Cc1ccc(S(=O)(=O)NC(CC(C)C)C(=O)O)cc1 (centres undefined)
- T/C (dose: 100.0 mg/kg/injection, schedule: Q01DX001 (ip), vehicle: other): 101 % of control
- T/C (dose: 200.0 mg/kg/injection, schedule: Q01DX001 (ip), vehicle: other): 96 % of control
- T/C (dose: 400.0 mg/kg/injection, schedule: Q01DX001 (ip), vehicle: other): 98 % of control

Compound: CC(C)(C)C1CCCC(NC(=O)N(CCCl)N=O)C1 (centres undefined)
- T/C (dose: 6.0 mg/kg/injection, schedule: Q01DX001 (ip), vehicle: other): 111 % of control
- T/C (dose: 12.0 mg/kg/injection, schedule: Q01DX001 (ip), vehicle: other): 108 % of control
- T/C (dose: 46.0 mg/kg/injection, schedule: Q01DX001 (ip), vehicle: other): 153 % of control
- T/C (dose: 93.0 mg/kg/injection, schedule: Q01DX001 (ip), vehicle: other): 187 % of control
- T/C (dose: 187.0 mg/kg/injection, schedule: Q01DX001 (ip), vehicle: other): 238 % of control
- T/C (dose: 250.0 mg/kg/injection, schedule: Q01DX001 (ip), vehicle: other): 218 % of control
- T/C (dose: 375.0 mg/kg/injection, schedule: Q01DX001 (ip), vehicle: other): 164 % of control
- T/C (dose: 500.0 mg/kg/injection, schedule: Q01DX001 (ip), vehicle: other): 118 % of control

Compound: Cc1ccc(S(=O)(=O)Nc2ccc(C#N)c3ccccc23)cc1
- T/C [1]: 92 % of control
- T/C [2]: 90 % of control
- T/C (dose: 200.0 mg/kg/injection, schedule: Q01DX009 (ip), vehicle: saline with Tween-80): 89 % of control
- T/C [16]: 95 % of control
- T/C (dose: 400.0 mg/kg/injection, schedule: Q01DX009 (ip), vehicle: saline with Tween-80): 89 % of control
- T/C [17]: 87 % of control

Compound: Cc1ccc(Sc2cccc3c2C(=O)c2c(Sc4ccc(C)cc4)cccc2C3=O)cc1
- T/C [2]: 86 % of control
- T/C [16]: 91 % of control
- T/C [17]: 88 % of control

Compound: O=[N+]([O-])c1ccc(N2CCOCC2)cc1
- T/C [3]: 95 % of control
- T/C [4]: 100 % of control
- T/C [13]: 105 % of control

Compound: O=[N+]([O-])c1cccc(S(=O)(=O)NNc2c(Cl)cc(Cl)cc2Cl)c1
- T/C [3]: 94 % of control
- T/C [4]: 93 % of control
- T/C [13]: 96 % of control

Compound: CN(C)CCCc1c2ccccc2nc2ccc(Cl)cc12
- T/C (dose: 12.0 mg/kg/injection, schedule: Q01DX009 (ip), vehicle: saline): 98 % of control
- T/C [18]: 101 % of control

Compound: O=S1(=O)CC=CC1
- T/C [10]: 103 % of control
- T/C [11]: 97 % of control
- T/C [12]: 97 % of control

Compound: CC(C)=Nc1cccc(B(O)O)c1
- T/C [5]: 98 % of control
- T/C [6]: 88 % of control
- T/C [7]: 95 % of control

Compound: CCCCCCCC[n+]1ccc(C#N)cc1
- T/C (dose: 18.8 mg/kg/injection, schedule: Q04DX003 (ip), vehicle: saline): 97 % of control
- T/C (dose: 37.5 mg/kg/injection, schedule: Q04DX003 (ip), vehicle: saline): 100 % of control
- T/C (dose: 75.0 mg/kg/injection, schedule: Q01DX001 (ip), vehicle: saline): 96 % of control
- T/C (dose: 75.0 mg/kg/injection, schedule: Q04DX003 (ip), vehicle: saline): 100 % of control

Compound: O=C1c2ccccc2-c2c(Br)c3ccccc3c(=O)n21
- T/C [8]: 91 % of control
- T/C [9]: 89 % of control
- T/C [14]: 91 % of control
- T/C [15]: 94 % of control

Compound: Cc1nc(NN)c(C(N)=O)nc1C
- T/C [18]: 98 % of control
- T/C (dose: 25.0 mg/kg/injection, schedule: Q04DX003 (ip), vehicle: saline): 101 % of control
- T/C (dose: 50.0 mg/kg/injection, schedule: Q01DX009 (ip), vehicle: saline): 96 % of control
- T/C (dose: 50.0 mg/kg/injection, schedule: Q04DX003 (ip), vehicle: saline): 103 % of control
- T/C [10]: 104 % of control

Compound: c1ccc2c(c1)oc1cc3ccncc3cc12
- T/C [5]: 96 % of control
- T/C [6]: 94 % of control
- T/C [7]: 102 % of control

Compound: CCCCCCCCCCCCOc1ccc(C=O)cc1OC
- T/C [3]: 95 % of control
- T/C [4]: 98 % of control
- T/C [13]: 106 % of control

Compound: O=C(CCl)Nc1ccccc1S(=O)(=O)F
- T/C (dose: 18.75 mg/kg/injection, schedule: Q01DX009 (ip), vehicle: carboxymethylcellulose (CMC)): 91 % of control
- T/C (dose: 37.5 mg/kg/injection, schedule: Q01DX009 (ip), vehicle: carboxymethylcellulose (CMC)): 92 % of control
- T/C (dose: 75.0 mg/kg/injection, schedule: Q01DX001 (ip), vehicle: carboxymethylcellulose (CMC)): 98 % of control
- T/C (dose: 75.0 mg/kg/injection, schedule: Q04DX003 (ip), vehicle: carboxymethylcellulose (CMC)): 94 % of control
- T/C (dose: 150.0 mg/kg/injection, schedule: Q01DX001 (ip), vehicle: carboxymethylcellulose (CMC)): 93 % of control
- T/C (dose: 150.0 mg/kg/injection, schedule: Q04DX003 (ip), vehicle: carboxymethylcellulose (CMC)): 88 % of control
- T/C (dose: 300.0 mg/kg/injection, schedule: Q01DX001 (ip), vehicle: carboxymethylcellulose (CMC)): 97 % of control
